Laboratory results published in US20250101429A1, “siRNAs and shRNAs Targeting HIV and Combinations, Expression Cassettes, Cells and Use Thereof” (BEIJING SOLOBIO GENETECHNOLOGY CO., LTD., priority 2021, published 2025).

Tests used:
Format in all cases: cell-based
HIV-1 IIIB = assay: Antiviral activity of recombinant lentiviruses against HIV-1 IIIB in H9 cells (P24 antigen ELISA); settings: H9 + HIV-1 IIIB, positive drug, concentration 1 μM; for Relative concentration(%): vs no-drug control = 100; for Average concentration of P24: day 7
Description: The H9 cells were resuscitated and subcultured in complete medium (RPMI-1640+10% FBS+PS). The cells were resuspended in OPTI-MEM medium, counted and adjusted to a concentration of 5×10^5 cells/ml, and inoculated in 6-well plates with 2 ml per well. The experimental groups SIV-Gag3, SIV-Gag2, SIV-Gag1, SIV-LTR2 or SIV-Nef, SIV-EGFP empty vector control group and blank control group (no HIV-1 IIIB infection, and […]) were set on the 6-well plates. The above recombinant lentiviruses were added to the 6-well plates with the multiplicity of infection (MOI) of 2000, mixed, and cultured at 37° C., 5% CO2 for 24 hours. Each well was supplemented with 4 ml complete medium and cultured at 37° C., 5% CO2 for 72 hours.
(§1) 5 ml of supernatant from each well of 6-well plates was discarded and another 5 ml of fresh complete medium was added. Cells were diluted and inoculated in 96-well plates at 1×10^4 cells/well. 0.5 ml of HIV-1 IIIB was diluted with 5.75 ml of complete medium and mixed. Then 100 μl of virus diluent was added to each well of cells, except for the blank control group, mixed and incubated at 37° C. and 5% CO2. Half volume of liquid was changed on day 2 and day 4 after HIV-1 IIIB infection, respectively. 150 μl of sample was taken from each well on day 7 after infection, sealed and heated at 56° C. for 30 minutes. After the HIV viruses were thermally inactivated, the sample was stored at −20° C., ready for ELISA detection.
HIV-1 P24 antigen detection kit (96T) (Beijing Jinboyi Biotechnology Co., Ltd.) was used for ELISA detection. The OD Value was measured with a microplate reader. Then average value, and relative concentration was calculated to determine the antiviral activity of the recombinant lentiviruses against HIV-1 IIIB in H9 cells.
The H9 cells were resuscitated and subcultured in complete medium (RPMI-1640+10% FBS+PS). The cells were resuspended in OPTI-MEM medium, counted and adjusted to a concentration of 5×10^5 cells/ml, and inoculated in 6-well plates with 2 ml per well. The experimental groups SIV-G3L2, SIV-G2L2, SIV-G1L2, or SIV-G2N, SIV-EGFP empty vector control group, positive drug control group (Efavirenz, EFV, Shanghai Desano Pharmaceuticals Co., Ltd., Concentration 1 μM), no-drug control group (HIV-1 IIIB infection, and no recombinant lentivirus drug administration) and blank control group (no HIV-1 IIIB infection, and no lentivirus drug administration) were set on the 6-well plates. The recombinant lentiviruses were added to the 6-well plates at five doses with the multiplicity of infection (MOI) of 125, 250, 500, 1000, and 2000, and the added volumes were 2.1 μL, 4.2 μL, 8.4 μL, 16.7 μL, 33.3 μL, respectively, with one well for each dose. The recombinant lentivirus SIV-EGFP with MOI of 2000 was added as an empty vector control, the volume was 33.3 μL. Mixed, and cultured at 37° C. and 5% CO2 for 24 hours. Each well was supplemented with 4 ml complete medium and cultured at 37° C., 5% CO2 for 72 hours.
as §1, with “the cells” for “Cells”

[1] = test system: HIV reverse transcriptase inhibitor resistant strain MT2-010; assay: Antiviral activity against reverse transcriptase inhibitor resistant strain MT2-010 in MT2 cells (P24 ELISA); settings: MT2 + MT2-010, positive drug, concentration 1 μM; for Average concentration: P24 ELISA; for Relative concentration(%): vs no-drug control = 100
Description: The experimental design of example 4 was the same as that of Example 3, except that the tested strain was a reverse transcriptase inhibitor resistant strain MT2-010, and the infected cells were MT2 cells. Firstly, cell culture and recombinant lentivirus infection: the experimental group SIV-G3L2 or
(§2) SIV-G2N, SIV-EGFP empty vector control group, positive drug control group (Efavirenz, EFV, Shanghai Desano Pharmaceuticals Co., Ltd., Concentration 1 μM), no drug control group (MT2-010 infection, and no recombinant lentivirus drug administration), and a blank control group were set on the 6-well plates. The recombinant lentiviruses were added to the 6-well plates with the multiplicity of infection (MOI) of 125, 250, 500, 1000 and 2000, respectively, and the recombinant lentivirus SIV-EGFP with MOI of 2000 was added as an empty vector control. Mixed and cultured.
Then virus challenge: the MT2 cells were diluted and inoculated in 96-well plates at 1×10^4 cells/well. The reverse transcriptase inhibitor resistant strain MT2-010 was diluted with complete culture medium, and mixed. The virus diluent was added into each well of cells, except for the blank control group. Mixed and cultured. The sampling was performed as described in Example 3, and ELISA detection was performed by using the above-mentioned kit. The OD value was measured with a microplate reader. Then average value, and relative concentration was calculated to determine the antiviral activity of the recombinant lentiviruses against MT2-010 in MT2 cells.

[2] = test system: HIV protease inhibitor resistant strain MT2-884; assay: Antiviral activity against protease inhibitor resistant strain MT2-884 in MT2 cells (P24 ELISA); settings: Table 9, MT2 + MT2-884, positive drug, concentration 1 μM
Description: as §2, with “The experimental method of example 5 was the same as Step 1 of Example 3, except that the tested strain was a protease inhibitor resistant strain MT2-884, and the infected cells were MT2 cells. Firstly, cell culture and recombinant lentivirus SIV-G3L2 or SIV-G2N infection: Cells were cultured in 6-well plates, and the experimental group SIV-G3L2 or SIV-G2N,” for “SIV-G2N,”, “(MT2-884” for “(MT2-010”
Then virus challenge: the MT2 cells were diluted and inoculated in 96-well plates at 1×10^4 cells/well. […] The OD value was measured with a microplate reader. then average value, and relative concentration was calculated to determine the antiviral activity of the recombinant lentiviruses against MT2-884 in MT2 cells.

O=C1Nc2ccc(Cl)cc2[C@@](C#CC2CC2)(C(F)(F)F)O1 [EFV, Efavirenz]
Average concentration (HIV-1 IIIB; Table 3, P24 ELISA day 7): 10 | Relative concentration(%) (HIV-1 IIIB; Table 3): 0.05% | Average concentration of P24 (HIV-1 IIIB; Table 4): <10 pg/mL | Relative concentration(%) (HIV-1 IIIB; Table 4): 0.05% | Average concentration of P24 (HIV-1 IIIB; Table 5): <10 pg/mL | Relative concentration(%) (HIV-1 IIIB; Table 5): 0.05% | Average concentration of P24 (HIV-1 IIIB; Table 6): <10 pg/mL | Relative concentration(%) (HIV-1 IIIB; Table 6): 0.05% | Average concentration ([1]; Table 7): 52.69 | Relative concentration(%) ([1]; Table 7): 0.17% | Average concentration ([1]; Table 8): 59.36 | Relative concentration(%) ([1]; Table 8): 0.21% | Average concentration(pg/ml) ([2]; P24 ELISA): 50 pg/mL | Relative concentration(%) ([2]; vs no-drug control = 100): 0.51%
